Measurements as given in publication PMC7570662, “In Vivo Pharmacokinetic Analysis Utilizing Non-Targeted and Targeted Mass Spectrometry and In Vitro Assay against Transient Receptor Potential Channels of Maobushisaishinto and Its Constituent Asiasari Radix” (Molecules, 2020).
pEC50: −log10 of the molar value. Read-outs that look alike come from different tables or passages of the source.

Key:
[1] = Quantitative targeted LC-MS/MS pharmacokinetics of AR ingredients in rat plasma after oral MBST; type: in vivo
Description: Seven-week-old male Sprague-Dawley rats were purchased from Charles River Laboratories (Yokohama, Japan) and Japan SLC (Hamamatsu, Japan). The animals were housed under a temperature of 23 °C ± 3 °C and relative humidity of 50% ± 20%, with 12-h/12-h light/dark cycle and allowed free access to water and standard laboratory food (MF, Oriental Yeast Co., Ltd., Tokyo, Japan). The animals were used in experiments following habituation for several days.
Extract powders of AR or MBST were suspended in distilled water and orally administered to rats having fasted for approximately 16 h. The dose of AR was set at 2 g/kg, and the MBST doses were set at 1 and 2 g/kg. 1 g/kg MBST contained 578 µg/kg, 147 µg/kg, 226 µg/kg, 426 µg/kg asarinin, sesamin, methyl kakuol, and amide A, respectively. The doses were chosen based on a previous pharmacological study of MBST using rats.
Blood samples were centrifuged at 1700× g at 4 °C for 15 min to obtain plasma, of which samples were then stored at ≤−75 °C until analysis.
To quantify the plasma concentration of the AR components identified by the non-targeted analysis, the plasma samples at 0–24 h after MBST administration (1 or 2 g/kg) were supplied to targeted LC-MS/MS analysis in SRM mode with electrospray ionization.
For the quantification of methyl kakuol, amide A, asarinin, and sesamin in plasma, 100 µL of MBST-treated rat plasma was mixed with 20 µL of methanol (as the vehicle of the working solution described below) and 20 µL of internal standard niflumic acid (2 or 20 ng/mL). To prepare the calibration curve, the same volumes of blank plasma and various concentrations of working solution (final plasma concentration, 0.02–200 ng/mL) were used instead of the MBST-treated rat plasma and methanol. Finally, 500 µL of methanol was added for deproteinization. The mixture was centrifuged at 7000× g at 4 °C for 5 min. The supernatant was dried using a centrifugal evaporator. The dried residue was dissolved in 60 or 80 μL of the initial LC mobile phase which was composed of 5 mmol/L ammonium acetate in water/methanol (70/30, v/v), and then, a 5 or 10 μL aliquot was injected into the LC-MS/MS system. The injected sample was chromatographically separated using a YMC-Pack ODS-AQ column (2.0 ×150 mm I.D., 3-μm particle size; GL Sciences, Tokyo, Japan) at 30 °C. The mobile phase consisted of solution A (5 mmol/L ammonium acetate) as well as solution B (methanol), with a gradient of solution B (30%, 0 min; 70%, 25 min; 95%, 25.01–30 min; 30%, 30.01–35 min; v/v) at a flow rate of 0.3 mL/min. In brief, the compounds were analyzed using optimal MS/MS parameters as follows: methyl kakuol (m/z 209.056/176.1), amide A (m/z 248.174/57.1), asarinin (m/z 372.123/173.1), and sesamin (m/z 372.118/233.1). The calibration ranges for methyl kakuol, amide A, asarinin, and sesamin were 0.5–100 ng/mL, 0.5–200 ng/mL, 0.1–200 ng/mL, 0.1–200 ng/mL, respectively.
The AR ingredient levels in the plasma are presented as the mean + standard deviation. Pharmacokinetic parameters of plasma AR ingredients, such as the Cmax, AUC0-last, were calculated by non-compartmental analysis using the Phoenix WinNonlin software (Certara L.P., St. Louis, MO, USA). The concentration data were pooled per each time point; then, the mean concentration–time data were subjected to the non-compartmental analysis.

human TRPA1 = molecular target: T1, human TRPA1 (Homo sapiens, UniProt O75762); test: Ca2+ influx assay in TRPA1-expressing T-REx-293 cells; type: cell-based; details: for activation at 10 µM: T-REx-293, read-out: % of Activation Compared to Positive Control against Each Subfamily of TRP Channel TRPA1; for pEC50: dose-response test, Ca2+ influx, read-out: EC50 Value against TRPA1
T1 construct: Each full-length human TRPA1, TRPV1, TRPV4, and TRPM8 coding regions were introduced into a pcDNA4/TO vector; expressed in transfected cells; host or cells: T-REx-293 cells (tetracycline-induced, pcDNA4/TO vector)
T1 sequence (O75762 whole entry): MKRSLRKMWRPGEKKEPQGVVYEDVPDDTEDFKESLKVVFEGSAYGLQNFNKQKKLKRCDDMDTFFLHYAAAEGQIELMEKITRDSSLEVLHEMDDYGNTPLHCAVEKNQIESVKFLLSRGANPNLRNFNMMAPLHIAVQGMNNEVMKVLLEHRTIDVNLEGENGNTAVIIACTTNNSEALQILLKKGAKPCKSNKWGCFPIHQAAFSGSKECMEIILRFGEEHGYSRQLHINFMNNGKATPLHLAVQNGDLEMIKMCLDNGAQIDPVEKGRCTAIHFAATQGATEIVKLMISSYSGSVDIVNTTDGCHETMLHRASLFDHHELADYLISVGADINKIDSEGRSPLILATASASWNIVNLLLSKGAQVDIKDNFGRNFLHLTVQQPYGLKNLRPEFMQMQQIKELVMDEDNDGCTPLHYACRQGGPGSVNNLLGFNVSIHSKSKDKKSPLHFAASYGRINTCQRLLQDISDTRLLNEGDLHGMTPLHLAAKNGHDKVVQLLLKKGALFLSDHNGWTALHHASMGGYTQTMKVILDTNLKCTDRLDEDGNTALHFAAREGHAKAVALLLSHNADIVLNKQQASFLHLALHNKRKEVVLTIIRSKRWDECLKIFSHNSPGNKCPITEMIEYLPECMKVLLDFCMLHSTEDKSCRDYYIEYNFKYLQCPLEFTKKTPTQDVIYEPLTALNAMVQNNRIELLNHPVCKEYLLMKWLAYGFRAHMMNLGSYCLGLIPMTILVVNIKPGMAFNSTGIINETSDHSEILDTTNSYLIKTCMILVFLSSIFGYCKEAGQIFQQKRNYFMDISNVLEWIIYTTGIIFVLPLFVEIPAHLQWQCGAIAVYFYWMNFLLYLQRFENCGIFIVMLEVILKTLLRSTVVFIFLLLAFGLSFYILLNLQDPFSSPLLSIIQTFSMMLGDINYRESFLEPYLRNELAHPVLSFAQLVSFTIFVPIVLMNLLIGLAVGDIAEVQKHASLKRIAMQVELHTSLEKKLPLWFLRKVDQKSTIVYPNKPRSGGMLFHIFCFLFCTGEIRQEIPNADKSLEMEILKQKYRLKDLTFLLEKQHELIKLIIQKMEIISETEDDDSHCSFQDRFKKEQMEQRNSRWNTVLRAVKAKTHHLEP
Description: (§1) Each full-length human TRPA1, TRPV1, TRPV4, and TRPM8 coding regions were introduced into a pcDNA4/TO vector (Thermo Fisher Scientific, Waltham, MA, USA) and transfected into T-REx-293 cells (Thermo Fisher Scientific) to obtain stable cell lines expressing human TRPA1, TRPV1, TRPV4, and TRPM8. Cells were cultured in DMEM with 10% FBS, 4 mmol/L L-glutamine, and penicillin/streptomycin.
(§2) Cells were suspended in medium with 1 µg/mL tetracycline and seeded in poly-D-lysine coated 96-well plate at 2.5 × 10^4 cells/well. After overnight culture, the cells were used for Ca^2+ influx assay.
(§3) The Ca^2+ influx assay was performed using a FLIPR Calcium 5 Assay Kit (Molecular Devices, Sunnyvale, CA, USA) according to previously reported methods with minor modifications. In brief, cells were incubated with 80 µL Ca^2+-chelating dye dissolved in assay buffer at pH 7.4 (Hanks’ Balanced Salt Solution containing 20 mmol/L of N-2-hydroxyethylpiperazine-N’-2-ethanesulfonic acid) at room temperature for 30 min. The plates were assayed using a FlexStation 3 Microplate Reader (Molecular Devices). The fluorescence intensity was traced entirely for 80 s. The baseline of fluorescence was measured for 20 s before adding 20 µL of test compound (final concentration, 10 µmol/L). The response was expressed as percentage activation using the relative fluorescence units (RFU) (% activation = 100 × ((RFUmax − RFUbaseline)/RFUbaseline) − 100). Furthermore, the activities of each test compound against several subfamilies of TRP channels were represented as the relative enhancement of Ca^2+ influx of each positive control, indicated as follows: 20 µmol/L of allyl isothiocyanate (an agonist of TRPA1), 2 µmol/L of capsaicin (an agonist of TRPV1), 4 µmol/L of GSK1016790A (an agonist of TRPV4), and 20 µmol/L of icilin (an agonist of TRPM8). The dose–response curve was fitted to the sigmoidal dose-response equation (top, the max response of each compound), and EC50 values were calculated using GraphPad Prism 7 software (GraphPad, San Diego, CA, USA).

human TRPV1 = molecular target: T2, human TRPV1 (Homo sapiens, UniProt Q8NER1); test: Ca2+ influx assay in TRPV1-expressing T-REx-293 cells; type: cell-based; details: 10 µmol/L test compound, relative to 2 µmol/L capsaicin; for activation at 10 µM: T-REx-293, read-out: % of Activation Compared to Positive Control against Each Subfamily of TRP Channel TRPV1
T2 construct: Each full-length human TRPA1, TRPV1, TRPV4, and TRPM8 coding regions were introduced into a pcDNA4/TO vector; expressed in transfected cells; host or cells: T-REx-293 cells (tetracycline-induced, pcDNA4/TO vector)
T2 sequence (Q8NER1 whole entry): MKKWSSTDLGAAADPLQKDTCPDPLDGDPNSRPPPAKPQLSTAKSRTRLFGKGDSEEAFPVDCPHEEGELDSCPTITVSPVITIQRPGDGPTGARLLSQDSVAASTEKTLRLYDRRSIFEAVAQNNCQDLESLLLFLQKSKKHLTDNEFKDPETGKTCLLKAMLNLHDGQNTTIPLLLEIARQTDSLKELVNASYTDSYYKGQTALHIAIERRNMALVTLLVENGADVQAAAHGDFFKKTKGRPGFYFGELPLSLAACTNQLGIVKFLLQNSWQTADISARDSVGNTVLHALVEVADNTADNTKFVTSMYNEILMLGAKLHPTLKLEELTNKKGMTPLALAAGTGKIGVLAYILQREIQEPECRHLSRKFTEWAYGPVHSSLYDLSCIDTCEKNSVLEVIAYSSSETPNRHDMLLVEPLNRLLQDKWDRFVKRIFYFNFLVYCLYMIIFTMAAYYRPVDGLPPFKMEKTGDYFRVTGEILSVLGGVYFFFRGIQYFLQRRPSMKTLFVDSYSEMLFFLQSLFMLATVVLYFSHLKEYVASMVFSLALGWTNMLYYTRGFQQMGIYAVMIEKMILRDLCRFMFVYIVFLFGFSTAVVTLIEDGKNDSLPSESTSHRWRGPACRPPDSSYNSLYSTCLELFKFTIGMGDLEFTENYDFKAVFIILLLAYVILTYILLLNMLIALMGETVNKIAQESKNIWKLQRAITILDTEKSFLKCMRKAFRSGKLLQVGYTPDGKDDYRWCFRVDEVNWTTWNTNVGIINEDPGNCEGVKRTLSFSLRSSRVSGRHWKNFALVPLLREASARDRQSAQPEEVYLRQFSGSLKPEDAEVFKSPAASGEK
Description: as §1, §2, §3

human TRPV4 = molecular target: T3, human TRPV4 (Homo sapiens, UniProt Q9HBA0); test: Ca2+ influx assay in TRPV4-expressing T-REx-293 cells; type: cell-based; details: 10 µmol/L test compound, relative to 4 µmol/L GSK1016790A; for activation at 10 µM: T-REx-293, read-out: % of Activation Compared to Positive Control against Each Subfamily of TRP Channel TRPV4
T3 construct: Each full-length human TRPA1, TRPV1, TRPV4, and TRPM8 coding regions were introduced into a pcDNA4/TO vector; expressed in transfected cells; host or cells: T-REx-293 cells (tetracycline-induced, pcDNA4/TO vector)
T3 sequence (Q9HBA0 whole entry): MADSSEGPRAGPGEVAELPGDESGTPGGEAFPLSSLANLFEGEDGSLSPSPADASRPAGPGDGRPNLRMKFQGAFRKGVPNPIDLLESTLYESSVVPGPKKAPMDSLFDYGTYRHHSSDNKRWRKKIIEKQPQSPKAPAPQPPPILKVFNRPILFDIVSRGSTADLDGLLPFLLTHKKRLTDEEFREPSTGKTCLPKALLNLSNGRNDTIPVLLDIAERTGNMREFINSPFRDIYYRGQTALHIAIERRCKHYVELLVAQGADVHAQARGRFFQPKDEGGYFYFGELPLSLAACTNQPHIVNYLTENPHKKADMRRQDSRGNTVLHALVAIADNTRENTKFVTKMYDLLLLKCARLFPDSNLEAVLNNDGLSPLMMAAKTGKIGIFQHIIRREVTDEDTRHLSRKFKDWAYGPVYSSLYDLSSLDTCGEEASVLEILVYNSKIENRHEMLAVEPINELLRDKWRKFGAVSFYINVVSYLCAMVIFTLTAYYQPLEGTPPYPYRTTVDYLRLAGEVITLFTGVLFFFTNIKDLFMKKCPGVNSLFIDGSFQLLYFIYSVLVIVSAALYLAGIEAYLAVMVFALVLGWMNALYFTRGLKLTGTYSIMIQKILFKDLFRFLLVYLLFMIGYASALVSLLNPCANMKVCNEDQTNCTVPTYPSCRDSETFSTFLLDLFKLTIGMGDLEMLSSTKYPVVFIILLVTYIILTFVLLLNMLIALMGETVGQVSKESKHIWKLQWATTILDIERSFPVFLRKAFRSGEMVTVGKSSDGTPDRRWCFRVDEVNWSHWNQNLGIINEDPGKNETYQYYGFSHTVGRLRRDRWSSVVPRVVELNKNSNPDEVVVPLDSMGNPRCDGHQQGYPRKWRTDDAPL
Description: as §1, §2, §3

human TRPM8 = molecular target: T4, human TRPM8 (Homo sapiens, UniProt Q7Z2W7); test: Ca2+ influx assay in TRPM8-expressing T-REx-293 cells; type: cell-based; details: 10 µmol/L test compound, relative to 20 µmol/L icilin; for activation at 10 µM: T-REx-293, read-out: % of Activation Compared to Positive Control against Each Subfamily of TRP Channel TRPM8
T4 construct: Each full-length human TRPA1, TRPV1, TRPV4, and TRPM8 coding regions were introduced into a pcDNA4/TO vector; expressed in transfected cells; host or cells: T-REx-293 cells (tetracycline-induced, pcDNA4/TO vector)
T4 sequence (Q7Z2W7 whole entry): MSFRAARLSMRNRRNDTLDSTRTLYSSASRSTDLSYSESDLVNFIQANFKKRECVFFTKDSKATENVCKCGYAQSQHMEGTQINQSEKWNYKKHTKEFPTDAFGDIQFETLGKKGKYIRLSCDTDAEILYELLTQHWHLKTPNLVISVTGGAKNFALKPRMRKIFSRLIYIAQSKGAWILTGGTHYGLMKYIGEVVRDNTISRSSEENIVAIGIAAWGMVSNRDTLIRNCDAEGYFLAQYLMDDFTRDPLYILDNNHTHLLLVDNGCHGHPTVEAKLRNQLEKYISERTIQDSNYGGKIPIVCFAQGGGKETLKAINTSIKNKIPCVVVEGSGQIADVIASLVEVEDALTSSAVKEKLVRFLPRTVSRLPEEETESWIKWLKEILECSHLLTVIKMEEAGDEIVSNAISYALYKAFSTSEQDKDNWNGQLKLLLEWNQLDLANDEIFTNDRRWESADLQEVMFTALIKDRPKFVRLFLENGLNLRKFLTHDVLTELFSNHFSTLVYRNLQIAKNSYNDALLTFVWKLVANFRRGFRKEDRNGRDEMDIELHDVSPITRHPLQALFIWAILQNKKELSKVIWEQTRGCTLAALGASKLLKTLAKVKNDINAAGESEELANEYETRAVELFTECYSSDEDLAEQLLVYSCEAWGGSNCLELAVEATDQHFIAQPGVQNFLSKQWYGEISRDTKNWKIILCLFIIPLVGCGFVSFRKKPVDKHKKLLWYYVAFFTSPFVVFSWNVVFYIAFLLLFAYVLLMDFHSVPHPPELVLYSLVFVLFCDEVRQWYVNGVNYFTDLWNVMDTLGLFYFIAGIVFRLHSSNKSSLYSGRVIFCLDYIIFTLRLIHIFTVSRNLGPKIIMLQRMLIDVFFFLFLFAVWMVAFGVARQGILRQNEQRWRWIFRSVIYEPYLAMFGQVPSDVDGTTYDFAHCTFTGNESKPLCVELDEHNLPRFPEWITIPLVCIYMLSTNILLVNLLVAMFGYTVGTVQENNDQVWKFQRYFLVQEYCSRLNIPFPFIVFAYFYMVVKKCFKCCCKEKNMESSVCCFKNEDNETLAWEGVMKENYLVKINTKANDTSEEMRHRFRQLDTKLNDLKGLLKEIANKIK
Description: as §1, §2, §3

[2] = 10 µmol/L test compound, relative to 20 µmol/L allyl isothiocyanate
[3] = male, Sprague-Dawley, rat, in vivo, po, 1 g/kg
[4] = male, Sprague-Dawley, rat, in vivo, po, 2 g/kg

SMILES	activation at 10 µM (human TRPA1; [2])	pEC50 (human TRPA1)	activation at 10 µM (human TRPV1)	activation at 10 µM (human TRPV4)	activation at 10 µM (human TRPM8)	AUC(0-t) [1, 3]	Cmax [1, 3]	Tmax [1, 3]	half-life [1, 3]	k el [1, 3]	AUC(0-t) [1, 4]	Cmax [1, 4]	Tmax [1, 4]	half-life [1, 4]	k el [1, 4]	other results
C/C=C/C=C\CC/C=C/C=C/C(=O)NCC(C)C [Amide A, (2E,4E,8Z,10E)-N-isobutyl-2,4,8,10-dodecatetraenamide]	96%	6.33	0.7%	2.7%	6.1%	–	–	–	–	–	–	–	–	–	–	AUC(0-t) ([1]; male, Sprague-Dawley, rat plasma, oral MBST 1 g/kg, read-out: AUC0-last): 0.00487 µg·h/mL; Cmax ([1]; male, Sprague-Dawley, rat plasma, oral MBST 1 g/kg, read-out: Cmax): 4.08 ng/mL; k el ([1]; male, Sprague-Dawley, rat plasma, oral MBST 1 g/kg, read-out: kel (converted)): 0.000211 s⁻¹; half-life ([1]; male, Sprague-Dawley, rat plasma, oral MBST 1 g/kg, read-out: t1/2 (converted)): 54.7 min; Tmax ([1]; male, Sprague-Dawley, rat plasma, oral MBST 1 g/kg, read-out: tmax): 30 min; AUC(0-t) ([1]; male, Sprague-Dawley, rat plasma, oral MBST 2 g/kg, read-out: AUC0-last): 0.0184 µg·h/mL; Cmax ([1]; male, Sprague-Dawley, rat plasma, oral MBST 2 g/kg, read-out: Cmax): 6.07 ng/mL; k el ([1]; male, Sprague-Dawley, rat plasma, oral MBST 2 g/kg, read-out: kel (converted)): 6.58e-05 s⁻¹; half-life ([1]; male, Sprague-Dawley, rat plasma, oral MBST 2 g/kg, read-out: t1/2 (converted)): 175 min; Tmax ([1]; male, Sprague-Dawley, rat plasma, oral MBST 2 g/kg, read-out: tmax): 15 min
c1cc2c(cc1[C@H]1OC[C@H]3[C@@H]1CO[C@H]3c1ccc3c(c1)OCO3)OCO2 [Asarinin, (−)-Asarinin]	106%	5.51	-0.4%	-0.1%	1.4%	0.0163 µg·h/mL	8.42 ng/mL	15 min	91.2 min	0.000127 s⁻¹	0.0386 µg·h/mL	14.7 ng/mL	15 min	176 min	6.58e-05 s⁻¹	–
CCC(=O)c1cc2c(cc1OC)OCO2 [Methyl kakuol]	–	6.57	–	–	–	–	–	–	–	–	–	–	–	–	–	AUC0-last ([1]; rat plasma, oral MBST 1 g/kg): 0.0225 µg·h/mL; Cmax ([1]; rat plasma, oral MBST 1 g/kg): 26.7 ng/mL; Tmax ([1]; rat plasma, oral MBST 1 g/kg): 30 min; k el ([1]; rat plasma, oral MBST 1 g/kg): 0.000425 s⁻¹; t1/2 ([1]; rat plasma, oral MBST 1 g/kg): 27.1 min; AUC0-last ([1]; rat plasma, oral MBST 2 g/kg): 0.214 µg·h/mL; Cmax ([1]; rat plasma, oral MBST 2 g/kg): 98.2 ng/mL; Tmax ([1]; rat plasma, oral MBST 2 g/kg): 60 min; k el ([1]; rat plasma, oral MBST 2 g/kg): 0.000153 s⁻¹; t1/2 ([1]; rat plasma, oral MBST 2 g/kg): 75.6 min; % of Activation Compared to Positive Control against Each Subfamily of TRP Channel TRPA1 (human TRPA1; [2]): 49%; % of Activation Compared to Positive Control against Each Subfamily of TRP Channel TRPV1 (human TRPV1): 0.1%; % of Activation Compared to Positive Control against Each Subfamily of TRP Channel TRPV4 (human TRPV4): 0.9%; % of Activation Compared to Positive Control against Each Subfamily of TRP Channel TRPM8 (human TRPM8): 2.8%
c1cc2c(cc1[C@H]1OC[C@H]3[C@@H]1CO[C@@H]3c1ccc3c(c1)OCO3)OCO2 [Sesamin]	106%	5.64	-0.1%	-0.1%	-0.8%	0.0119 µg·h/mL	5.63 ng/mL	30 min	97.8 min	0.000118 s⁻¹	0.0287 µg·h/mL	9.44 ng/mL	15 min	179 min	6.44e-05 s⁻¹	–
